Experimental data published in patent US20100137294A1, “COMPOUNDS, COMPOSITIONS AND METHODS FOR CONTROLLING INVERTEBRATE PESTS” (GENETIC TECHNOLOGIES LIMITED, priority 2006, published 2010).

Tested on: T. vitrinus L3 larvae
Test: Testing of compounds on T. vitrinus L3 larvae (96-well microplate larval kill assay)
Format: cell-based, Trichostrongylus vitrinus
Settings: primary screening, 5 mM compound, 5% DMSO, overnight RT
Procedure: The ability of the compounds to kill T. vitrinus L3 larvae was tested. The L3 stage is encased in a sheath, which protects the larva from external stresses such as desiccation and chemicals. This makes it more difficult to kill this part of the lifecycle with chemotherapeutic agents. The tests will determine which compounds can kill this lifestage, therefore defining which compounds can penetrate through the sheath and subsequently kill the larva.
The L3 stage of T. vitrinus were collected and stored in water at 4° C. until needed. Each compound was suspended in 100% dimethyl sulphoxide (DMSO) to a final concentration of 100 mM.
Around fifty L3 larvae were added, in 95 μl of water, to the wells of a 96-well microtitre plate. The plate was incubated overnight RT. Plates were viewed under a binocular microscope and the proportion of dead L3 larvae in the controls and each treatment were scored. Concentrations above 5 mM were not tested as DMSO alone kills larvae when the proportion exceeds 5% of the total volume. Many of the compounds are predicted to have limited solubility in aqueous solution, thus requiring the presence of organic solvent. The appropriate controls included wells with and without various concentrations of DMSO alone.
Three compounds ((4), (10) and (20)) could also kill 100% of larvae exposed at 0.5 mM.

Row | SMILES | % of T. vitrinus L3 larvae killed [%]
1 | CCCN1C(=O)C2C(C1=O)[C@H]1CC[C@@H]2O1 (some centres unmarked) [Compound 4, N-propyl-7-Oxabicyclo(2.2.1)heptane-2,3-dicarboximide] | 100
2 | CCCCN1C(=O)C2C3CCC(O3)C2C1=O (centres unmarked) [Compound 5, N-butyl-7-Oxabicyclo(2.2.1)heptane-2,3-dicarboximide] | 100
3 | CCCCCCCCN1C(=O)C2C3CCC(O3)C2C1=O (centres unmarked) [Compound 6, N-octyl-7-Oxabicyclo(2.2.1)heptane-2,3-dicarboximide] | 100
4 | CCCCCCCCCCN1C(=O)C2C3CCC(O3)C2C1=O (centres unmarked) [Compound 7, N-decyl-7-Oxabicyclo(2.2.1)heptane-2,3-dicarboximide] | 100
5 | O=C(O)C1C(C(=O)NCCN2CCOCC2)[C@H]2CC[C@@H]1O2 (some centres unmarked) [Compound 12, 3-(Ethylmorpholinecarbamoyl)-7-Oxabicyclo(2.2.1)heptane-2-carboxylic acid] | 100
6 | O=C(O)C(Cc1ccc(O)cc1)N1C(=O)C2C(C1=O)[C@H]1CC[C@@H]2O1 (some centres unmarked) [Compound 19] | 100
7 | O=C1NC(=O)C2C1[C@@H]1CC[C@H]2O1 (stereo partly drawn) [Compound 20, exo-7-Oxabicyclo(2.2.1)heptane-2,3-dicarboximide] | 100

Same assay, conditions: secondary screening, serial ten-fold dilutions, 0.5 mM

Row | SMILES | % of T. vitrinus L3 larvae killed [%]
8 | CCCN1C(=O)C2C(C1=O)[C@H]1CC[C@@H]2O1 (some centres unmarked) [Compound 4, N-propyl-7-Oxabicyclo(2.2.1)heptane-2,3-dicarboximide] | 100
9 | O=C1NC(=O)C2C1[C@@H]1CC[C@H]2O1 (stereo partly drawn) [Compound 20, exo-7-Oxabicyclo(2.2.1)heptane-2,3-dicarboximide] | 100

Tested on: H. contortus L3 larvae
Test: Testing compounds on H. contortus L3 larvae (96-well microplate larval kill assay)
Format: cell-based, Haemonchus contortus
Settings: secondary screening, sequential ten-fold dilutions of 5 mM down to 0.5
Procedure: The L3 stage of H. contortus was collected from the faeces of experimentally infected sheep and stored in water at room temperature until needed. A stock solution of each compound was prepared by suspending the compound in 100% dimethyl sulphoxide (DMSO) to a final concentration of 100 mM.
For this set of experiments, Trichostrongylus vitrinus (T. vitrinus) L3 larvae were used as positive controls by testing with the compounds identified in previous experiments as being able to kill all larvae. Approximately 50 L3 larvae of each species were added, in 95 μl of water, to the wells of a 96-well microtitre plate. All compounds were tested initially at a concentration of 5 mM by adding 5 μl of inhibitor in 100% DMSO.
The plates were incubated overnight at room temperature (RT). Plates were viewed under a binocular microscope and the compounds showing 100% kill of H. contortus larvae were determined. Concentrations above 5 mM were not tested as DMSO alone kills larvae when the proportion exceeds 5% of the total volume. Many of the compounds are predicted to have limited solubility in aqueous solution, thus requiring the presence of organic solvent. Additional controls included wells with and without various concentrations of DMSO alone.
Eight inhibitors, from the primary screening, appeared to kill 90-100% of H. contortus L3 larvae at a concentration of 5 mM. […]

Row | SMILES | killing of H. contortus L3 larvae across the dilution series
10 | O=C1C2C(C(=O)N1CCO)[C@H]1CC[C@@H]2O1 (some centres unmarked) [Compound 15, N-Ethyl alcohol-7-Oxabicyclo(2.2.1)heptane-2,3-dicarboximide] | killed the larvae at the highest and lowest concentrations used

Tested on: not given
Test: not given
Settings: not given

Row | melting point [°C] | SMILES
11 | 140 to 142 | O=C(O)C1C(C(=O)N2CCCCC2)[C@H]2CC[C@@H]1O2 (some centres unmarked)
12 | 163 to 164 | CC(C)(C)c1ccccc1NC(=O)C1C(C(=O)O)[C@@H]2CC[C@H]1O2 (some centres unmarked)
13 | 44 to 46 | CCC(C)C12CCC(O1)C1C(=O)NC(=O)C12 (centres unmarked)
14 | 97 to 99 | O=C1NC(=O)C2C1C1CCC2(C2CCCCC2)O1 (centres unmarked)
15 | 45 to 46 | CCCCCCCCCCCCCCC12CCC(O1)C1C(=O)NC(=O)C12 (centres unmarked)
16 | 62 to 64 | CCCCCCCCCCCCCCCCCCC12CCC(O1)C1C(=O)NC(=O)C12 (centres unmarked)
17 | 164 to 166 | O=C1NC(=O)C2C1C1CCC2(CCCO)O1 (centres unmarked)
18 | 104 to 107 | CC(CO)C12CCC(O1)C1C(=O)NC(=O)C12 (centres unmarked)
19 | 134 to 136 | CC(C)(CO)C12CCC(O1)C1C(=O)NC(=O)C12 (centres unmarked)
20 | 169 to 171 | O=C1NC(=O)C2C1C1CCC2(N2CCOCC2)O1 (centres unmarked)
21 | 171 to 172 | O=C1NC(=O)C2C1C1CCC2(c2ccccc2)O1 (centres unmarked)
22 | 207 to 209 | O=C1NC(=O)C2C1C1CCC2(c2ccc([N+](=O)[O-])cc2)O1 (centres unmarked)
23 | 83 to 85 | COc1ccc(CC23CCC(O2)C2C(=O)NC(=O)C23)cc1 (centres unmarked)
24 | 155 to 157 | COc1ccc(CC23CCC(O2)C2C(=O)NC(=O)C23)cc1OC (centres unmarked)
25 | 159 to 160 | Nc1ccccc1CC12CCC(O1)C1C(=O)NC(=O)C12 (centres unmarked)
26 | 145 to 146 | CN(C)CCOc1ccc(N2C(=O)C3C(C2=O)[C@H]2CC[C@@H]3O2)cc1 (some centres unmarked)
27 | 64 to 65 | C=CCCN1C(=O)C2C(C1=O)[C@H]1CC[C@@H]2O1 (some centres unmarked)
28 | 166 to 169 | CCC12CCC(O1)C1C(=O)NC(=O)C12 (centres unmarked)
29 | 105 to 107 | C=CCNC(=O)C1C(C(=O)O)[C@@H]2CC[C@H]1O2 (stereo in doubt)
30 | 125 to 126 | O=C(O)CCCCCCCNC(=O)C1C(C(=O)O)[C@@H]2CC[C@H]1O2 (stereo in doubt) [Compound 18, 3-(7-Carboxyheptylcarbamoyl)-7-oxabicyclo[2.2.1]heptane-2-carboxylic acid]
31 | 161 | Cn1ccc2c(CNC(=O)C3C(C(=O)O)[C@@H]4CC[C@H]3O4)cccc21 (stereo in doubt) [Compound 80, 3-[(1-Methyl-1H-indol-4-yl)methylcarbamoyl]-7-oxabicyclo[2.2.1]heptane-2-carboxylic acid]
32 | 96 to 97 | COC(CO)CN1C(=O)[C@@H]2[C@H](C1=O)[C@H]1CC[C@@H]2O1 (some centres unmarked) [Compound 16, N-2-Methoxypropyl-1-ol-7-Oxabicyclo(2.2.1)heptane-2,3-dicarboximide]
33 | 99 to 102 | O=C1C2C(C(=O)N1c1ncccc1OCc1ccccc1)[C@H]1CC[C@@H]2O1 (some centres unmarked) [Compound 77, 3-[3-(Benzyloxy)pyridin-2-yl]-10-oxa-4-azatricyclo[5.2.1]decane-3,5-dione]
34 | 113 to 115 | CN(C)CCOc1ccccc1N1C(=O)C2C(C1=O)[C@H]1CC[C@@H]2O1 (some centres unmarked) [Compound 79, 4,{2,[2-(Dimethylamino)ethoxy]phenyl}-10-oxa-4-azatricyclo[5.2.1]decane-3,5-dione]
35 | 159 to 160 | O=C(O)C1C(C(=O)NCC2OCCc3sccc32)[C@H]2CC[C@@H]1O2 (some centres unmarked) [Compound 81, 3,[(6,7-Dihydro-4H-thieno[3,2-c]pyran-4-yl)methylcarbamoyl]-7-oxabicyclo[2.2.1]heptane-2-carboxylic acid]

The remaining lines, values behind:

Row | SMILES | melting point [°C]
36 | CCCCCCCCCCCCC12CCC(O1)C1C(=O)NC(=O)C12 (centres unmarked) | 35 to 37
37 | C=CCC12CCC(O1)C1C(=O)NC(=O)C12 (centres unmarked) | 116 to 117
38 | O=C1NC(=O)C2C1C1CCC2(CCCCCCO)O1 (centres unmarked) | 56 to 57
39 | CCCCN(C(=O)C1C2CCC(O2)C1C(=O)O)c1ccccc1 (centres unmarked) | 105 to 107
40 | O=C(O)C1C(C(=O)NC2CCN(Cc3ccccc3)CC2)[C@H]2CC[C@@H]1O2 (stereo in doubt) | 124 to 125
41 | O=C(O)c1ccc(NC(=O)C2C(C(=O)O)[C@@H]3CC[C@H]2O3)cc1Cl (stereo in doubt) | 216 to 217
42 | CCCCCCCCNC(=O)C1C(C(=O)O)[C@@H]2CC[C@H]1O2 (stereo in doubt) | 131
43 | CCCCCCCCCCNC(=O)C1C(C(=O)O)[C@@H]2CC[C@H]1O2 (stereo in doubt) | 110 to 111
44 | CCc1ccccc1NC(=O)C1C(C(=O)O)[C@@H]2CC[C@H]1O2 (stereo in doubt) | 171 to 172
45 | O=C(O)CCCN1C(=O)C2C(C1=O)[C@H]1CC[C@@H]2O1 (some centres unmarked) [Compound 13, N-Butanoic acid-7-Oxabicyclo(2.2.1)heptane-2,3-dicarboximide] | 162 to 164
46 | O=C(O)CCCCCN1C(=O)C2C(C1=O)[C@H]1CC[C@@H]2O1 (some centres unmarked) [Compound 14, N-Hexanoic acid-7-Oxabicyclo(2.2.1)heptane-2,3-dicarboximide] | 110 to 112
47 | O=C1C2C(C(=O)N1CCO)[C@H]1CC[C@@H]2O1 (some centres unmarked) [Compound 15, N-Ethyl alcohol-7-Oxabicyclo(2.2.1)heptane-2,3-dicarboximide] | 164 to 166
